Test results published in patent US11628202B2, “Methods of reducing the need for surgery in patients suffering from benign prostatic hyperplasia” (Nymox Corporation, priority 2015, dated 2023).

Test system: patients with moderate to severe symptomatic benign prostatic hyperplasia (BPH)
Test: Prospective assessment of need for subsequent invasive surgical intervention in BPH patients after NX-1207 injection
Type: in vivo, human
Method: 645 patients (Group #1) with moderate to severe symptomatic benign prostatic hyperplasia (BPH) were prospectively randomly assigned to blinded treatment with a single therapeutic injection of NX-1207 or placebo (saline vehicle alone), and their clinical BPH signs and symptoms were assessed at weekly, monthly, 3-monthly or longer intervals, for durations of a few months to 5.5 years. None of these patients had received any prior invasive surgical procedures to treat their BPH condition. A prospective assessment was undertaken of all available subjects>=2 years after baseline to determine the usefulness of NX-1207 treatment for the prevention or the delay of the need for surgical procedures (i.e., subsequent invasive surgical intervention) to treat the patient's BPH condition. Patients who received placebo and no drug treatment progressed to invasive surgical procedures within 2 years of baseline in 7.65% of patients.
352 patients (Group #2) who were randomized and blindly treated with NX-1207 or placebo at the same time as Group #1 in Example 1, in addition to the initial treatment, were given a second treatment injection of NX-1207 at intervals of >=1 year after the initial randomization. None of these patients had received any prior invasive surgical procedures to treat their BPH condition. A prospective assessment was undertaken of all available subjects>=2 years after baseline to determine the usefulness of NX-1207 treatment for the prevention or the delay of the need for invasive surgical intervention to treat the patient's BPH condition.
Patients in Examples 1 and 2 were characterized as to whether they had previous treatment failures with conventional oral medications (i.e. “treatment failure”) vs whether they had not received any previous conventional oral medications for their BPH condition (i.e., “treatment naïve”). A prospective assessment was undertaken of all available subjects>=2 years after baseline to determine the usefulness of NX-1207 treatment for the prevention or the delay of the need for subsequent invasive surgical intervention to treat the patient's BPH condition.
In the above examples, the amount of NX-1207 administered was 2.5 mg.

“IDQQVLSRIKLEIKRCL [NX-1207, NTP peptide injected once or twice (2.5 mg) in BPH patients]” was tested. Which “improvement in reducing the need for subsequent invasive surgical intervention, compared to patients who received a single injection” value (administered twice) did it give?
Its value is ~69%.

And the “improvement in reducing the need for subsequent invasive surgical intervention, compared to patients who received the placebo” value (administered twice)?
The value was ~80%.

And the “need for subsequent invasive surgical intervention” value (previous treatment failure subjects, assessed >=2 years after baseline, treatment failure placebo 10.4%)?
The value was 6.1%.

What about the “rate of need for invasive surgical procedures” value (second injection >=1 year after initial randomization, assessed >=2 years after baseline, p<0.001 vs placebo 7.65%, p<0.01 vs single injection 5.1%) of the same sequence?
Its value is 1.6%.

And the “reduced rate of invasive surgical procedures within 2 years, compared to placebo” value (single therapeutic injection, 2.5 mg)?
The value was 33.3%.

And the “patients progressed to invasive surgical procedures within 2 years of baseline” value (single therapeutic injection, 2.5 mg, BPH patients, no prior invasive surgery, placebo 7.65%)?
The value was 5.1%.

And the “improvement in reducing the need for subsequent invasive surgical intervention, compared to patients who received the placebo” value (treatment naive patients)?
The value was ~88%.

And the “improvement in reducing the need for subsequent invasive surgical intervention, compared to treatment failure patients who received the NTP peptide” value (treatment naive patients)?
The value was ~85%.

And the “improvement in reducing the need for subsequent invasive surgical intervention, compared to treatment failure patients who received the placebo” value (treatment naive patients)?
The value was ~91%.

And the “need for invasive surgical procedures” value (treatment naïve patients, assessed >=2 years after baseline, placebo controls 7.5%, p<0.01)?
Its value is 0.9%.
